From patent US4010149A, “Analogs of LH-RH and process for preparing the same” (Sankyo Company Limited, priority 1974, dated 1977)

Tested on: ovulation
Test: Ovulation inducing effect in proestrus rats (subcutaneous)
Assay type: in vivo, F. Wistar-Imamichi rats
Conditions: subcutaneous injection at 4:00 p.m. on proestrus day; pentobarbital 30 mg/kg i.p. at 1:00 p.m.; five rats per dosage
Protocol: Examination of ovulation inducing effect
F. Wistar-Imamichi rats (body weight: around 250 g) were bred at room temperature (23° ±1° C) under an artificial light (on at 5:00 a.m. and off at 7:00 p.m.). Among these rats, the rats which had more than three times of four days sexual cycle were subjected to the test.
At 1:00 p.m. on proestrus days, pentobarbital sodium salt was intraperitoneally administered into each of rats (in the amount of 30 mg/kg). Then, at 4:00 p.m. of the same day, a test sample dissolved in 0.1 ml of isotonic sodium chloride solution was subcutaneously injected. Between noon and 1:00 p.m. of the next day, the rats were sacrified and the oviduct was immediately taken out. The oviduct was then placed between a couple of slide glasses and examined for ova through a microscope. The test was conducted by employing five rats for a certain dosage of test samples.

| Molecule | ED50 (ovulation inducing effect) [μg/body] |
| --- | --- |
| CCCC[C@@H](NC(=O)[C@H](Cc1ccc(O)cc1)NC(=O)[C@H](CO)NC(=O)[C@H](Cc1c[nH]c2ccccc12)NC(=O)[C@H](Cc1c[nH]cn1)NC(=O)CN(C)C(C)=O)C(=O)N[C@@H](CC(C)C)C(=O)N[C@@H](CCCNC(=N)N)C(=O)N1CCC[C@H]1C(=O)NCCF [Compound B, N-Acetyl-N-methylglycyl-L-histidyl-L-tryptophyl-L-seryl-L-tyrosyl-D-norleucyl-L-leucyl-L-arginyl-L-proline-2-fluoroethylamide] | 0.0125 |
| CC(C)C[C@H](NC(=O)CNC(=O)[C@H](Cc1ccc(O)cc1)NC(=O)[C@H](CO)NC(=O)[C@H](Cc1c[nH]c2ccccc12)NC(=O)[C@H](Cc1c[nH]cn1)NC(=O)[C@@H]1CCC(=O)N1)C(=O)N[C@@H](CCCNC(=N)N)C(=O)N1CCC[C@H]1C(=O)NCC(N)=O [Natural-type LH-RH (synthesized), L-pyroglutamyl-L-histidyl-L-tryptophyl-L-seryl-L-tyrosylglycyl-L-leucyl-L- arginyl-L-prolylglycine amide, reference compound] | 0.134 |
| N-Acetyl-N-methylglycyl-L-histidyl-L-tryptophyl-L-seryl-L-tyrosyl-D-alanyl-L-leucyl-L-arginyl-L-prolineethylamide [Compound A] | 0.018 |
